Series [1] can be described thus: Solubility in DPBS (Table 1). Type of series: physicochemical. To be noted: Dulbecco's phosphate buffered saline; measured as OD (280 nm) at saturation.
In series [2] the test system is laser-induced choroidal neovascularization (CNV). The experiment in a line: Laser-induced choroidal neovascularization, nonhuman primate model of wet-type AMD, fluorescein angiography lesion grading. It is filed as in vivo, macaque. To be noted: for CNV lesion size, % of baseline: third Cp50-treated animal (K-2434). Here is the method:
The effects of the compstatin analogue Cp50 (described above) were compared vs. vehicle, in a nonhuman primate model of wet-type age-related macular degeneration (AMD). In this model, laser-induced choroidal neovascularization (CNV) was performed in the eyes of macaques.
Laser-induced CNV was performed in both eyes of the macaques, as described below. Two weeks (Day 14) after laser photocoagulation, laser lesions were graded (Grade 1-4) via fluorescein angiograms (FA).
Under ketamine (15 mg/kg, i.m.) and xylazine (2 mg/kg, i.m), on Day 15, the eyes were intravitreally (IVT) injected with either vehicle, or compstatin Cp50. FA measurements were performed on weeks 4, 6, 8 10 and 12 (total of five times), following CNV.
Briefly, under light ketamine (10 mg/kg, i.m.) anesthesia, the pupils were dilated with tropicamide/phenylephrine (Mydrin-P® ophthalmic solution; Santen Pharmaceutical Co., Osaka, Japan). For the laser treatment, the macaques were anesthetized with a combination of ketamine (15 mg/kg, i.m.; Daiichi Sankyo Propharma Co., Tokyo, Japan) and xylazine (2 mg/kg, i.m.; Bayer Yakuhin, Osaka, Japan). A green laser (900 mW output; Green Scan Laser Photocoagulator, GYC-500, Nidek, Co., Gamagori, Japan) was applied to eight spots (about 75 μm, 0.1 s duration) around the macula in a grid pattern. The extent of CNV lesion was assessed using fluorescence angiography (FA) at predetermined time points.
On the day of lesion grading, under light ketamine (10 mg/kg, i.m.) anesthesia, the pupils were dilated with tropicamide/phenylephrine (Mydrin-P® ophthalmic solution), and then the macaques were anesthetized with a combination of ketamine (15 mg/kg, i.m.) and xylazine (2 mg/kg, i.m).
Fluorescence Angiography (FA) was used to check the extent of CNV in the back of the eye. Ten percent sodium fluorescein (Fluorescite®; 10 mg/kg, i.v.; Novartis, Tokyo, Japan) was injected and a fundus camera took pictures of the back of the eye at about 1, 3, and 5 min after i.v. injection.
Following randomization, under ketamine (15 mg/kg, i.m.) and xylazine (2 mg/kg, i.m), on Day 15, the eyes were intravitreally (IVT) injected with 50 μl of either vehicle, or Cp50. Before IVT injection, eyes were treated twice daily for three days with levofloxacin hydrate (0.5%; Cravit®, Santen Pharmaceutical Co.).
Under anesthesia, a solution of tropicamide/phenylephrine HCl (Mydrin®-P), levofloxacin hydrate (0.5%; Santen Pharmaceutical Co.), and oxybuprocaine HCl (0.4%; Santen Pharmaceutical Co.) was instilled before dosing.

Series [3] addresses T1, C3 (Homo sapiens, UniProt P01024). The experiment in a line: KD (Table 1). Type of series: binding.
The target in series [4] is T1, C3. To be noted: background statement; cited from earlier work.
Target sequence in this assay (P01024 23-1663): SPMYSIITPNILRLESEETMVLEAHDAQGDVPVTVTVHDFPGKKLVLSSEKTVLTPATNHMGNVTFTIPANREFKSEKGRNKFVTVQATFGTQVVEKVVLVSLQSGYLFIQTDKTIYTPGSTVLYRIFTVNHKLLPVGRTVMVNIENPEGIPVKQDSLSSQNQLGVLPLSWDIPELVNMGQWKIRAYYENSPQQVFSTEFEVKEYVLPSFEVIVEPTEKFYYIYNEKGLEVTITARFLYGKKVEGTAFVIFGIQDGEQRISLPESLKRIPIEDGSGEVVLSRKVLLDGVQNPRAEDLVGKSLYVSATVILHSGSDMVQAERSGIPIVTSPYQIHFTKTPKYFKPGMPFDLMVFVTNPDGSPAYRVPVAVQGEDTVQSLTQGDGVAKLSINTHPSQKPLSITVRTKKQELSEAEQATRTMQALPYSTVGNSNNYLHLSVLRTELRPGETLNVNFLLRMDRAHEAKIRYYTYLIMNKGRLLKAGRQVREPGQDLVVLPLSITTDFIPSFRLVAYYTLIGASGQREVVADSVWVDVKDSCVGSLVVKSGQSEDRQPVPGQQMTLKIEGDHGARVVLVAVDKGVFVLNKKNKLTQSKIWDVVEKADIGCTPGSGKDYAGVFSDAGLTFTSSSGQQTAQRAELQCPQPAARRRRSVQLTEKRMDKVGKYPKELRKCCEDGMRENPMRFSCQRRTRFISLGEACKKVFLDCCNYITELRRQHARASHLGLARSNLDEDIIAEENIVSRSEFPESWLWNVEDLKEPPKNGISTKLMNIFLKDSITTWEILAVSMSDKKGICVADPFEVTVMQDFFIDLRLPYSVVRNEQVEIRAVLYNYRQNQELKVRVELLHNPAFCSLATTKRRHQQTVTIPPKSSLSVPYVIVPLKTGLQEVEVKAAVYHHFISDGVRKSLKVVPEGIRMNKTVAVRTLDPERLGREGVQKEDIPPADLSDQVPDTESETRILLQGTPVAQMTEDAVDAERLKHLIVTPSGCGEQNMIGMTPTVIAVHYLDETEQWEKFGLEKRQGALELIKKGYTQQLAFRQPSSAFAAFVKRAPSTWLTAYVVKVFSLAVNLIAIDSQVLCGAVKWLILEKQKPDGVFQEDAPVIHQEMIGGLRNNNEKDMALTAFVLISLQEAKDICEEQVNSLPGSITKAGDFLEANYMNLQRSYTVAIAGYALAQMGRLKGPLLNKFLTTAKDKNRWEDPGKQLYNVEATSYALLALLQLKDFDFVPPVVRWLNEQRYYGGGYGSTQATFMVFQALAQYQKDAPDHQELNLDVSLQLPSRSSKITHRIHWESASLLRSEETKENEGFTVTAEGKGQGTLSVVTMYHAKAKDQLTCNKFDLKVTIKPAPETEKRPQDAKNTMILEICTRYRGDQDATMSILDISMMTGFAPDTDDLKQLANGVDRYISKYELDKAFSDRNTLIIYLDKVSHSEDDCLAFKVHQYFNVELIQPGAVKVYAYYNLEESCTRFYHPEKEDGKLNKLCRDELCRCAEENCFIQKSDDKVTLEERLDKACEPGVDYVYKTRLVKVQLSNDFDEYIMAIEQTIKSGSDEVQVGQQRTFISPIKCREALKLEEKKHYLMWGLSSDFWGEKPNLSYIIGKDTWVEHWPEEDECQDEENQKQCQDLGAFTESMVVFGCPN
For a further series, the target named is T2, C3 protein (UniProt P01024 23-1663, limits assumed).
T2 construct: also called complement component C3; plasma protein C3
Description: method not stated (Table 1; target C3 implied).

Values after ≈ are worked out from the molar mass of the structure shown. Where a SMILES comes first, the peptide text is derived from it. Bridges are numbered along the chain shown (N, C = ends). Where no end group is shown, it is not given here.

A word on the solubility: it is the concentration that dissolves in the medium under given conditions. Lower therefore signals little dissolved substance. A word on the Kd: it is the constant that tells how readily two partners part at equilibrium. Low readings indicate higher affinity, high ones lower affinity.

T2 sequence (P01024 23-1663 limits assumed): as the sequence (P01024 23-1663) above

In series [1], `CC[C@H](C)[C@H](NC(=O)[C@@H]1CSSC[C@H](NC(=O)[C@@H](NC(=O)[C@@H](N)Cc2ccc(O)cc2)[C@@H](C)CC)C(=O)N[C@@H]([C@@H](C)CC)C(=O)N[C@@H](Cc2c[nH]c3ccccc23)C(=O)N[C@@H](CCC(N)=O)C(=O)N[C@@H](CC(=O)O)C(=O)N[C@@H](Cc2c[nH]c3ccccc23)C(=O)NCC(=O)N[C@@H](CCC(=O)O)C(=O)N[C@@H](Cc2c[nH]cn2)C(=O)N[C@@H](CCCNC(=N)N)C(=O)N1)C(=O)N[C@@H](CCCCN)C(=O)N[C@@H](CCCCN)C(=O)N[C@@H](CCCCN)C(=O)O` [Cp51] (HELM PEPTIDE1{Y.I.C.I.W.Q.D.W.G.E.H.R.C.I.K.K.K}$PEPTIDE1,PEPTIDE1,3:R3-13:R3$$$V2.0; N-terminus and C-terminus assumed) displayed a solubility of over 250 mg/mL.

In the case of `CC[C@H](C)[C@H](NC(=O)[C@H](N)Cc1ccc(O)cc1)C(=O)N[C@H]1CSSC[C@@H](C(=O)N(C)[C@H](C(N)=O)[C@@H](C)CC)NC(=O)[C@H](CCCNC(=N)N)NC(=O)[C@H](Cc2c[nH]cn2)NC(=O)[C@H](C)NC(=O)CN(C)C(=O)[C@H](Cc2c[nH]c3ccccc23)NC(=O)[C@H](CC(=O)O)NC(=O)[C@H](CCC(N)=O)NC(=O)[C@H](Cc2cn(C)c3ccccc23)NC(=O)[C@H](C(C)C)NC1=O` [Cp40, dTyr-Ile-[Cys-Val-1MeTrp-Gln-Asp-Trp-Sar-Ala-His-Arg-Cys]-mIle, reference compound], in series [1], the “Solubility DPBS” value was found to be 0.8 mg/mL (≈ 0.447 mM).

In the case of `CC[C@H](C)[C@H](NC(=O)[C@@H]1CSSC[C@H](NC(=O)[C@@H](NC(=O)[C@@H](N)Cc2ccc(O)cc2)[C@@H](C)CC)C(=O)N[C@@H]([C@@H](C)CC)C(=O)N[C@@H](Cc2c[nH]c3ccccc23)C(=O)N[C@@H](CCC(N)=O)C(=O)N[C@@H](CC(=O)O)C(=O)N[C@@H](Cc2c[nH]c3ccccc23)C(=O)NCC(=O)N[C@@H](C)C(=O)N[C@@H](Cc2c[nH]cn2)C(=O)N[C@@H](CCCNC(=N)N)C(=O)N1)C(=O)N[C@@H](CCCCN)C(=O)N[C@@H](CCCCN)C(=O)N[C@@H](CCCCN)C(=O)O` [Cp50] (HELM PEPTIDE1{Y.I.C.I.W.Q.D.W.G.A.H.R.C.I.K.K.K}$PEPTIDE1,PEPTIDE1,3:R3-13:R3$$$V2.0; N-terminus and C-terminus assumed), in series [1], the solubility is over 250 mg/mL. Also, in series [2] (Weeks 4, 6, 8 and 12, intravitreal injection on Day 15), the “mean Grade 4 lesion compared to eyes treated with vehicle” value is “reduced”. Moreover, the “CNV lesion size, % of baseline” value in series [2] (by week 6) is on record as 50%; in series [2] (by week 12), 25%. In addition, the CNV lesion size entry in series [2] (two Cp50-treated eyes, as early as week 4 post laser-induced CNV) is “decline”. In addition, the “reduction of Grade 4 lesion ratios” value in series [2] (two Cp50-treated eyes, from week 6 onwards until week 12) turned out to be 100%. Binding on C3 [3] was put at a Kd of 500 pM.

On to `CC[C@H](C)[C@H](N)C(=O)N[C@H]1CSSC[C@@H](C(=O)N[C@H](C(N)=O)[C@@H](C)O)NC(=O)[C@H](CCCN=C(N)N)NC(=O)[C@H](Cc2cnc[nH]2)NC(=O)[C@H](Cc2cnc[nH]2)NC(=O)CNC(=O)[C@H](Cc2c[nH]c3ccccc23)NC(=O)[C@H](CC(=O)O)NC(=O)[C@H](CCC(N)=O)NC(=O)[C@H](C(C)C)NC(=O)[C@H](C(C)C)NC1=O` [Compstatin], for which the “binding affinity for C3” value on C3 [4] is on record as “micromolar”.

For YICIWQDWGEHRCIKKK (disulfide 3-13) [Cp51], the Kd with C3 protein was found to be 1000 pM.

(Values after patent US20260191991A1, “COMPSTATIN ANALOGS FOR VECTOR-BASED THERAPY” (AMYNDAS PHARMACEUTICALS US LLC, priority 2022, published 2026).)
